Experimental data as given in publication PMC4703387, “Identification of the Calmodulin-Binding Domains of Fas Death Receptor” (PLoS ONE, 2016).
Where no end group is shown, it is not given here.

Tests used:
Assay type in all cases: binding
Ca^2+/CaM [1] = target: T1, Ca^2+/CaM (Homo sapiens, UniProt P0DP23); test: Isothermal titration calorimetry (ITC), Ca^2+/CaM titrated into peptide
T1 construct: made in house
Description: Thermodynamic parameters of Ca^2+/CaM binding to Fas-Pep1 and Fas-Pep2 peptides were determined using an Auto-iTC200 microcalorimeter (Malvern Instruments). […] Heat of reaction of Ca^2+/CaM was measured over 19 injections at 25°C for Fas-Pep1 or 35°C for Fas-Pep2. Heat of dilution was measured by titrating Ca^2+/CaM into buffer. Data analysis was performed using the Microcal Origin package (ver. 8.1). Baseline corrections were performed by subtracting heat of dilution from the raw Ca^2+/CaM-peptide titration data. Binding curves were analyzed and dissociation constants (Kd) were determined by nonlinear least-square fitting of the baseline-corrected data. The formula used to fit the data as one binding site is: ΔQ(i)=Q(i)+(dVi/Vo)[(Q(i)+Q(i−1))/2]–Q(i–1) where ΔQ(i) is the heat released at i^th injection, Q(i) is the total heat content of the solution, dVi is injection volume, and Vo is total volume. Three replicate titration experiments were typically performed for each peptide.
Although it is recognized that the most frequent mechanism of CaM binding to target proteins involves the hydrophobic surfaces on the N- and C-terminal lobes,[23] electrostatic interactions also contribute to the formation and stabilization of CaM-protein complexes since CaM is acidic and CaM-binding motifs are often basic.[44, 45] The thermodynamic parameters of binding and the relative contribution of hydrophobic vs. electrostatic factors are often assessed by ITC methods, yielding various parameters such as dissociation constant (Kd), stoichiometry (n), enthalpy change (ΔH°) and entropy change (ΔS°). The thermodynamic parameters of Ca^2+/CaM binding to Fas-Pep1 and Fas-Pep2 were assessed by ITC.

Ca^2+/CaM [2] = target: T1, Ca^2+/CaM; test: Gel filtration assay of Ca^2+/CaM-peptide complexes; conditions: HiLoad Superdex 75 (10/300 GL), 50 mM Tris (pH 7.0), 100 mM NaCl, 5 mM CaCl2
Description: The mobility of Ca^2+/CaM complexes with Fas-Pep1 and Fas-Pep2 was analyzed by a gel filtration assay. […] Protein fractions were analyzed by SDS-PAGE. A low molecular weight calibration kit (GE Healthcare) was used to determine the approximate molecular weight of complexes.
Fas-Pep2 has been expressed and purified as a fusion protein with SUMO (see Materials and Methods). Because of some technical difficulties during purification of a recombinant peptide, a synthetic Fas-Pep1 was used in this study. The solution properties of Fas-Pep1 and Fas-Pep2 and their complexes with Ca^2+/CaM were initially analyzed with size exclusion chromatography assay. Samples were run on a size exclusion column (Superdex 75) under identical buffer conditions. Sample concentrations were at ~50–100 μM. […] Ca^2+/CaM complexes with Fas-Pep1 and Fas-Pep2 prepared at 1:1 stoichiometry eluted at 11.3 and 11.2 mL, respectively (Fig 3A). […] The formation of complexes was confirmed by SDS-PAGE (Fig 3B). […] As we and others have shown previously, Ca^2+/CaM elutes at a smaller than expected volume due to its elongated dumbbell shape.[32, 42, 43]

Ca^2+/CaM-N = target: T2, Ca^2+/CaM-N (Homo sapiens, UniProt P0DP23); test: NMR titration (2D 1H-15N HSQC) of isolated N-terminal lobe; conditions: 1H-15N HSQC titration
T2 construct: ^15N-labled samples of the isolated Ca^2+/CaM-N and Ca^2+/CaM-C domains; made in house
Description: (§1) NMR data were collected at 35°C on a Bruker Avance II (700 MHz ^1H) spectrometer equipped with a cryogenic triple-resonance probe, processed with NMRPIPE [35] and analyzed with NMRVIEW [36] or CCPN Analysis. […] For signal assignments of the complexes, ^13C-, ^15N-, or ^13C-/^15N-labeled Ca^2+/CaM at ~400–500 μM was mixed with unlabeled Fas-Pep1 (in 100% DMSO-d6) or Fas-Pep2 at 1.5:1 peptide:Ca^2+/CaM. […] The backbone atom resonances of Ca^2+/CaM complexes with Fas-Pep1 and Fas-Pep2 were assigned using HNCA, HN(CO)CA, HNCACB, HNCO, HN(CO)CACB and ^15N-edited NOESY-HSQC and TOCSY-HSQC experiments. These experiments have been also collected on ^15N-, or ^13C-/^15N-labeled Fas-Pep2 in complex with unlabeled Ca^2+/CaM to confirm the α-helical character of Fas-Pep2 when bound to Ca^2+/CaM. […] Combined ^1H-^15N chemical shift changes were calculated as ΔδHN = [(ΔδH)^2+(ΔδN/5)^2]^1/2, where ΔδH and ΔδN are the ^1H and ^15N chemical shift changes, respectively. Kd values were calculated by non-linear least-square fitting algorithm in Origin software (OriginLab, Northampton, MA) using the equation: ΔδHN=ΔδHN^max((Kd+L0+P0)−((Kd+L0+P0)^2−4*P0*L0)^0.5)/(2*P0) where ΔδHN^max is the chemical shift change between complex and free protein, L0 total concentration of ligand, and P0 total concentration of protein. […]

Ca^2+/CaM-C = target: T3, Ca^2+/CaM-C (Homo sapiens, UniProt P0DP23); test: NMR titration (2D 1H-15N HSQC) of isolated C-terminal lobe; conditions: 1H-15N HSQC titration
T3 construct: ^15N-labled samples of the isolated Ca^2+/CaM-N and Ca^2+/CaM-C domains; made in house
Description: as §1

[3] = as Kd (ITC), 25°C Fas-Pep1, 35°C Fas-Pep2

“VQDTAEQKVQLLRNWHQLHGKKEAYDTLIKDLKKANLC [Fas-Pep2]” was tested, and the “thermodynamic driving force of binding” value (Ca^2+/CaM [1]; ITC) was “enthalpically driven”, the “n (stoichiometry, ITC)” value (Ca^2+/CaM [1]; as Kd (ITC)) was 0.9 and the “ΔH°” value (Ca^2+/CaM [1]; [3]) was -14.2 kcal/mol. For the same sequence, the “ΔS°” value (Ca^2+/CaM [1]; [3]) was -18.8 cal/mol/K, the “elution volume, free” value (Ca^2+/CaM [2]; ~50–100 μM) was 15.2 mL and the “elution volume of complex with Ca^2+/CaM” value (Ca^2+/CaM [2]; prepared at 1:1 stoichiometry) was 11.2 mL. For the same sequence, the “CSPs on Ca^2+/CaM-N” value (Ca^2+/CaM-N) was “significant CSPs for numerous residues” and the “CSPs on Ca^2+/CaM-C” value (Ca^2+/CaM-C) was “significant CSPs for numerous residues”.
